We go through 1 compound from patent US20230026808A1, “COMPOUNDS, COMPOSITIONS, AND METHODS FOR TREATING ISCHEMIA-REPERFUSION INJURY AND/OR LUNG INJURY” (YALE UNIVERSITY, priority 2019, published 2023).

The test system of series [1] is lung transplantation-induced injury. The experiment in a line: Pilot clinical study in paired single lung transplantation recipients. The class given is in vivo, human. The text has this:
These represent all of the patients who were eligible for single LT and consented for enrollment into the study between Mar. 1, 2018 and Aug. 31, 2018. […] The baseline characteristics, surgical information, medical records during their ICU stay, as well as ventilator parameters, arterial blood gas analysis, and chest X-ray results within 5 days after LT were collected. All of the five donors were enrolled in a voluntary organ donation program and died of accident or disease.
The chest X-ray scores were obtained in the following manner: the heart field was regarded as the center, and the lung field was divided into four quadrants. Non-opacified regions, 0 points; opacified regions limited to 1/4 lung area, 1 point; limited to 2/4 lung area, 2 points; limited to 3/4 lung area, 3 points; in all lung fields, 4 points. Scores were independently collected by a clinician and a radiologist who were blinded for the treatment, and the average was used. If the difference between the two evaluators was greater than 1 point, discussion was conducted to reach a consensus. Hypoxemia index=PaO2/FiO2, measured by arterial blood gas analysis.
In the pilot clinical study, the linear mixed model repeated measures analysis was performed to compare the hypoxemia and X-ray scores over time between two groups accounting for both within-subject correlation and correlation of paired recipients. Time by group interaction was included in the model to examine the difference in trajectory of outcomes between two groups. Linear contrast was used to compare difference at each post-transplant day, and overall mean difference between groups as well. The analysis was conducted with SAS version 9.4 (SAS Inc., Cary, N.C.). The significance was set as p<0.05, two-sided.

In series [2] the test system is murine hepatitis virus strain 1 (MHV-1). The series is described as follows: Pazopanib IV in the MHV-1 mouse model. The class given is in vivo, A/J mice. The method, then: The murine hepatitis virus strain 1 (MHV-1) model was adopted for the pharmacology study. All MHV-1-infected A/J mice developed progressive interstitial edema, neutrophil/macrophage infiltrates, and hyaline membranes, leading to the death of all mice. Two studies have been completed to date. In the first one, mice were administered a 3-dose regimen of the study intervention at 6, 21, and 32 hours after virus inoculation. In the second, mice were administered a 2-dose regimen at 24 and 33 hours after inoculation.
A/J mice, 8 to 10 weeks old, were anaesthetized by Ketamine/Xylazine (100 and 10 mg/kg) and were kept under anesthesia during the whole procedure using Ketamine/Xylazine. After being deeply anesthetized (assessed by applying a noxious stimulus, e.g., toe pinch, and observing no reflex response and no change in either the rate or character of respiration), mice received an intranasal inoculation of 5000 PFU MHV-1 in 20 μL Dulbecco's modified Eagle's medium. After the administration, the mice were monitored until their breathing gradually returned to normal. Then the mice were returned to the recovery cage on the heating pad and monitored for their anesthesia status. […] The green fluorescence of BAL was measured by the plate reader. BAL fluorescence intensities from pazopanib-treated mice were normalized to the intensities from vehicle-control-treated mice wherein higher intensity corresponds to greater permeability.
A/J mice, 8-10 weeks old, were anaesthetized by Ketamine/Xylazine (100 and 10 mg/kg) and were kept under anesthesia during the whole procedure using Ketamine/Xylazine. After being deeply anesthetized (assessed by applying a noxious stimulus, e.g., toe pinch, and observing no reflex response and no change in either the rate or character of respiration), mice received an intranasal inoculation of 6000 PFU MHV-1 in 20 μL Dulbecco's modified Eagle's medium. After the administration, the mice were monitored until their breathing gradually returned to normal. Then the mice were returned to the recovery cage on the heating pad and monitored for their anesthesia status. […]

The conditions of series [3]: 800 mg orally once daily in cancer patients; cited from earlier work.
Series [4] concerns human neutrophils. The experiment in a line: ROS production assay in human neutrophils. It is filed as cell-based. To be noted: 100 nM fMLP. The method, then: For measurement of extracellular ROS release, isolated neutrophils were placed in the reaction buffer (0.25% BSA in HBSS with Ca^2+ and Mg^2+, 10 mM Isoluminol, 100 u/ml HRP) and stimulated with fMLP or PMA. For measurement of total ROS production, neutrophils were incubated with the reaction buffer (0.25% BSA in HBSS with Ca^2+ and Mg^2+, 10 mM Luminol, 100 u/ml HRP), followed with stimulations. Chemiluminescence was read continuously in a plate reader (Perkin Elmer). For reconstituted ROS production system in COS-7 cells, PMA (2 μM) was used for stimulation.
Buffy coat of human blood samples were subjected to neutrophil enrichment using the EasySep Human Neutrophil Enrichment Kit (Stemceli Technologies) according to manufacturer's protocol. Briefly, the depletion antibody cocktail was mixed with the buffy coat followed by incubation with magnetic particles. The EasySep Magnet was then used to immobilize unwanted cells as the label-free neutrophils were poured into another conical tube. Enriched neutrophils were pelleted and resuspended in an assay buffer (Hanks buffer with Ca^2+ and Mg^2+, 0.25% BSA) for ROS production assay or Western analysis.

Like-named read-outs stand apart in the source and are kept apart here.

In the case of `Cc1ccc(Nc2nccc(N(C)c3ccc4c(C)n(C)nc4c3)n2)cc1S(N)(=O)=O` [pazopanib, 5-((4-((2,3-dimethyl-2H-indazol-6-yl)(methyl)amino)pyrimidin-2-yl)amino)-2-methylbenzenesulfonamide], the “X-ray opacity score, difference treatment vs control group” value in series [1] (first day, pazopanib 200 mg oral before surgery) is 0.6; in series [1] (last day, pazopanib 200 mg oral before surgery), 0.7. Besides, the pulmonary edema entry in series [1] (lung transplantation-induced injury) is listed as “significantly reduced pulmonary edema”. Further, in series [1] (overall mean, pazopanib 200 mg oral before surgery), the “X-ray score lower than control group, on average” value was 0.5 point. Further, where the note is “2-week rat and monkey studies”, the “margin of safety based on AUC values” is on record as under 10 fold. The “safety margin based on Cmax” value (female monkeys) was found to be 23 fold and the “safety margin based on Cmax” value (male monkeys) is 25 fold. Moreover, the “HED for 70 kg human” value (monkey, 2-week study) turned out to be 224 mg. For the same compound, under “monkey, 5 days, IV 20 minute infusion, clinical dose 20 mg/day or 0.29 mg/kg”, the Margin of safety is reported as 33.1X. In addition, the t1/2 entry (monkeys) is “a few hours”. Besides, the “projected clinical efficacious dose” value in series [2] (assuming 70 kg human) is given as “approximately 16.8 mg”. In addition, the “human equivalent dose of efficacious dose” value in series [2] (from 3 mg/kg in mouse) is listed as 0.24 mg/kg. Moreover, in series [2] (mouse coronavirus-induced lung injury model), the efficacious dose result is “approximately 3 mg/kg”. In series [3], the tolerability entry is recorded as “well-tolerated”. Besides, in series [4], the ROS production entry is listed as “increases ROS production”.
